Measured values from article PMC12410723, “Structure-function studies of Vibrio cholerae quorum-sensing receptor CqsR signal recognition” (PLOS Pathogens, 2025).

Assays:
CqsRp = conditions: thermal unfolding; cited from earlier work
[1] = target: CqsR periplasmic domain (CqsRp) (Vibrio cholerae, UniProt Q9KR16); conditions: MST binding studies, summary of Fig 4
CqsR-D171A = CqsR-D171A strain, exogenously added ethanolamine
CqsR-D198N = CqsR-D198N strain, exogenously added ethanolamine
CqsR-W151A = CqsR-W151A strain, exogenously added ethanolamine
CqsR-T196A = CqsR-T196A strain, exogenously added ethanolamine
CqsR = conditions: in vivo / in culture, high-cell-density phenotype; cited from earlier work
WT CqsR = WT CqsR strain, exogenously added ethanolamine
CqsR-Y169A = CqsR-Y169A strain, exogenously added ethanolamine

Row | SMILES | CqsR binding (in words) [1] | further results
1 | NC(CO)CO [Serinol, serinol] |  | CqsRp melting temperature (CqsRp): increased
2 | CCC(N)CC [pentan-3-amine] | not tolerated | 
3 | C[C@H](N)CO [L-alaninol] |  | CqsRp melting temperature (CqsRp): increased
4 | CC[C@H](N)CO [(S)-(+)-2-amino-1-butanol] | Weak CqsR binding | 
5 | CCC(N)CO (stereo not shown) [2-amino-1-butanol] | Weak CqsR binding | 
6 | NC(CO)(CO)CO [Tris, tris] | Weak CqsR binding | 
7 | CCCN [propylamine] | not tolerated | 
8 | NCC(=O)O [Glycine, glycine] | not tolerated | 
9 | NCC(N)=O [glycinamide] | not tolerated | 
10 | NCCS [cysteamine] | not tolerated | 
11 | NCCO [Ethanolamine, ethanolamine] |  | qrr4 transcription (bioluminescence) (CqsR-D171A): intermediate phenotype; qrr4 transcription (bioluminescence) (CqsR-D198N): completely irresponsive; qrr4 transcription (bioluminescence) (CqsR-W151A): intermediate phenotype; qrr4 transcription (bioluminescence) (CqsR-T196A): reduced to a level comparable to that of the WT; CqsR signaling agonism (CqsR): acted as CqsR signaling agonists; qrr4 transcription (bioluminescence) (WT CqsR): reduced in a dose-dependent manner; qrr4 transcription (bioluminescence) (CqsR-Y169A): reduced to a level comparable to that of the WT
12 | NCCN [Ethylenediamine, ethylenediamine] | Weak CqsR binding | 
13 | C[C@H](N)C(=O)O [Alanine, alanine] | not tolerated | 
14 | CCCO [propanol] | No binding | 
15 | OCCO [Ethylene glycol, ethylene glycol] | No binding | 
16 | OCC(O)CO [Glycerol, glycerol] | No binding | 
